# Experimental data published in patent EP2308847B1, “Substituted pyridines as inhibitors of dipeptidyl peptidase IV and their application for the treatment of diabetes and related diseases” (EMC microcollections GmbH, priority 2009, dated 2011).
# Target: T1, human recombinant DPP-IV (Homo sapiens, UniProt P27487)
# T1 construct: purchased Enzo Life Sciences AK499-0001
# Test: biochemical
# Protocol: The potency of the tested compounds is described upon the degree in inhibition of DPP-IV cleavage of the chromogenic substrate Gly-Pro-pNA (pNA is p-nitroaniline), expressed as IC50 values.
# The assay was performed in 96-well plates at 37°C. First the enzyme was preincubated with the test compounds for 10 min. Therefore each well was filled with 0.18 mU of enzyme and variable concentrations of the inhibitor. Each well was filled up with Tris buffer (50 mM, pH 7.5) to a final volume of 200 µL. For dilutions of all test compounds DMSO was used.
# The assay was repeated 3 times for each test compound. IC50 values were calculated after plotting the data for up to eight inhibitor concentrations by mean.
# By measuring the rate of hydrolysis of Gly-Pro-pNA at four different concentrations of substrate and inhibitor the type of inhibition was determined. […] For each concentration of inhibitor the initial rates were used for Lineweaver-Burk plot.
# T1 sequence (P27487 whole entry): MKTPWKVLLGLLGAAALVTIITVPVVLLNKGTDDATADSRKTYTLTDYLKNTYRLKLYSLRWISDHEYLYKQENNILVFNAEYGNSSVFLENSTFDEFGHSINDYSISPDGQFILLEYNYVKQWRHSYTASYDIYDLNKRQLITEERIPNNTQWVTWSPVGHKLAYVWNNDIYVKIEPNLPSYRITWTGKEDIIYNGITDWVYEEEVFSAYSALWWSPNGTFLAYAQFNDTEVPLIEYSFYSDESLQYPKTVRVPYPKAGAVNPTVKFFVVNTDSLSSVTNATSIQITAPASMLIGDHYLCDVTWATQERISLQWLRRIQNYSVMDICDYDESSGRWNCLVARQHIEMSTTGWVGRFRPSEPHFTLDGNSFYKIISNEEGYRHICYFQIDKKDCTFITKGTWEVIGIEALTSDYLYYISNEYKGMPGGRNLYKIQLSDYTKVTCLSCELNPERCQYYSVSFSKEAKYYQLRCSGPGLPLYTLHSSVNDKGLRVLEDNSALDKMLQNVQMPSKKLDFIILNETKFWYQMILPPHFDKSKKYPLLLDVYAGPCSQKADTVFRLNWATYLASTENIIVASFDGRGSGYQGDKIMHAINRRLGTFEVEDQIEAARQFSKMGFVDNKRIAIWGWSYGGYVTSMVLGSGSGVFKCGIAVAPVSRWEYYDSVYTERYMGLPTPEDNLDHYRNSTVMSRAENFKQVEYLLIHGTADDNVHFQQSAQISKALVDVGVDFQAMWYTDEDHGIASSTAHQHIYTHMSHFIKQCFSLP
row,SMILES,IC50
1,Cc1nc(C(=O)O)cc(-c2ccc(F)cc2)c1CN [(XIII)],< 10 µM
2,Cc1nc(C(=O)O)cc(-c2ccccc2F)c1CN [(XIV)],< 10 µM
3,"Cc1nc(-c2ccc(Cl)cc2Cl)cc(C(=O)O)c1CN [regioisomer (XV), reference compound]",< 10 µM
